{"source": "ChEMBL document CHEMBL1135648", "about": "“Synthesis and evaluation of no-carrier-added 8-cyclopentyl-3-(3-[(18)F]fluoropropyl)-1-propylxanthine ([(18)F]CPFPX): a potent and selective A(1)-adenosine receptor antagonist for in vivo imaging” (J Med Chem, 2002)", "key": {"[1]": {"tested_on": "Mus musculus", "assay": "In vivo biodistribution in NMRI (Naval Medical Research Institute) mice spleen at the dose of 0.15-0.2 nmol at 60 min", "assay_type": "ADME, organism-based", "details": "1 h"}, "[2]": {"tested_on": "Mus musculus", "assay": "In vivo biodistribution in NMRI (Naval Medical Research Institute) mice liver at the dose of 0.15-0.2 nmol at 5 min", "assay_type": "ADME, organism-based"}, "[3]": {"target": "T1, Adenosine receptor A1 (Bos taurus, UniProt P28190)", "T1 sequence (P28190 whole entry)": "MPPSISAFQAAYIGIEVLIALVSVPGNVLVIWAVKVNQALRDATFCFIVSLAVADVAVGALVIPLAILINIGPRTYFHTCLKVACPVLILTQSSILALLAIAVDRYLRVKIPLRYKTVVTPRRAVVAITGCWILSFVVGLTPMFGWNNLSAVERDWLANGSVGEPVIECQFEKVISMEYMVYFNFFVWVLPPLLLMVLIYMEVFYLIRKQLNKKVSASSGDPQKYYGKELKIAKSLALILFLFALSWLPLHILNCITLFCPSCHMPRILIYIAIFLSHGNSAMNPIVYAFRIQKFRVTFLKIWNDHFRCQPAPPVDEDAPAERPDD", "assay": "In vitro binding affinity for Adenosine A1 receptor of bovine cortex"}, "[4]": {"tested_on": "Mus musculus", "assay": "In vivo biodistribution in NMRI (Naval Medical Research Institute) mice liver at the dose of 0.15-0.2 nmol at 20 min", "assay_type": "ADME, organism-based"}, "[5]": {"tested_on": "Mus musculus", "assay": "In vivo biodistribution in NMRI (Naval Medical Research Institute) mice brain at the dose of 0.15-0.2 nmol at 5 min", "assay_type": "ADME, organism-based"}, "[6]": {"tested_on": "Mus musculus", "assay": "In vivo biodistribution in NMRI (Naval Medical Research Institute) mice lung at the dose of 0.15-0.2 nmol at 2 min", "assay_type": "ADME, organism-based"}, "[7]": {"tested_on": "Mus musculus", "assay": "In vivo biodistribution in NMRI (Naval Medical Research Institute) mice kidney at the dose of 0.15-0.2 nmol at 10 min", "assay_type": "ADME, organism-based"}, "[8]": {"target": "T2, Adenosine receptor A1 (Homo sapiens, UniProt P30542)", "T2 sequence (P30542 whole entry)": "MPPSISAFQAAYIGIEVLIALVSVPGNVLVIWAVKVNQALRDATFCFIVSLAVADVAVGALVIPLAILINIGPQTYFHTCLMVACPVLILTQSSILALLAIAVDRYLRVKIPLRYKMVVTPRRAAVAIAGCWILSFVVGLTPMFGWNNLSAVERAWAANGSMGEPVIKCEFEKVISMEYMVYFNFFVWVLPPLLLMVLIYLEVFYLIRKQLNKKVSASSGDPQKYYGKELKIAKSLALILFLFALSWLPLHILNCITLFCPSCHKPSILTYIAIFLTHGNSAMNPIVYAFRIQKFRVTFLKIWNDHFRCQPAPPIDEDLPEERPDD", "assay": "In vitro binding affinity for human Adenosine A1 receptor expressed in CHO-K1 cells", "assay_type": "cell-based"}, "[9]": {"tested_on": "Mus musculus", "assay": "In vivo biodistribution in NMRI (Naval Medical Research Institute) mice heart at the dose of 0.15-0.2 nmol at 10 min", "assay_type": "ADME, organism-based"}, "[10]": {"tested_on": "Mus musculus", "assay": "In vivo biodistribution in NMRI (Naval Medical Research Institute) mice bone at the dose of 0.15-0.2 nmol at 60 min", "assay_type": "ADME, organism-based, Bone element", "details": "1 h"}, "[11]": {"tested_on": "Mus musculus", "assay": "In vivo biodistribution in NMRI (Naval Medical Research Institute) mice splee nat the dose of 0.15-0.2 nmol at 10 min", "assay_type": "ADME, organism-based"}, "[12]": {"tested_on": "Mus musculus", "assay": "In vivo biodistribution in NMRI (Naval Medical Research Institute) mice blood at the dose of 0.15-0.2 n mol at 2 min", "assay_type": "ADME, organism-based"}, "[13]": {"tested_on": "Mus musculus", "assay": "In vivo biodistribution in NMRI (Naval Medical Research Institute) mice intestine at the dose of 0.15-0.2 nmol at 60 min", "assay_type": "ADME, organism-based", "details": "1 h"}, "[14]": {"tested_on": "Mus musculus", "assay": "In vivo biodistribution in NMRI (Naval Medical Research Institute) mice lung at the dose of 0.15-0.2 nmol at 40 min", "assay_type": "ADME, organism-based"}, "[15]": {"tested_on": "Mus musculus", "assay": "In vivo biodistribution in NMRI (Naval Medical Research Institute) mice liver at the dose of 0.15-0.2 nmol at 10 min", "assay_type": "ADME, organism-based"}, "[16]": {"tested_on": "Mus musculus", "assay": "In vivo biodistribution in NMRI (Naval Medical Research Institute) mice intestine at the dose of 0.15-0.2 nmol at 10 min", "assay_type": "ADME, organism-based"}, "[17]": {"tested_on": "Mus musculus", "assay": "In vivo biodistribution in NMRI (Naval Medical Research Institute) mice liver at the dose of 0.15-0.2 nmol at 2 min", "assay_type": "ADME, organism-based"}, "[18]": {"tested_on": "Mus musculus", "assay": "In vivo biodistribution in NMRI (Naval Medical Research Institute) mice lung at the dose of 0.15-0.2 nmol at 60 min", "assay_type": "ADME, organism-based", "details": "1 h"}, "[19]": {"tested_on": "Mus musculus", "assay": "In vivo biodistribution in NMRI (Naval Medical Research Institute) mice bone at the dose of 0.15-0.2 nmol at 10 min", "assay_type": "ADME, organism-based, Bone element"}, "[20]": {"tested_on": "Mus musculus", "assay": "In vivo biodistribution in NMRI (Naval Medical Research Institute) mice bone at the dose of 0.15-0.2 nmol at 2 min", "assay_type": "ADME, organism-based, Bone element"}, "[21]": {"tested_on": "Mus musculus", "assay": "In vivo biodistribution in NMRI (Naval Medical Research Institute) mice brain at the dose of 0.15-0.2 nmol at 10 min", "assay_type": "ADME, organism-based"}, "[22]": {"tested_on": "Mus musculus", "assay": "In vivo biodistribution in NMRI (Naval Medical Research Institute) mice liver at the dose of 0.15-0.2 nmol at 40 min", "assay_type": "ADME, organism-based"}, "[23]": {"tested_on": "Mus musculus", "assay": "In vivo biodistribution in NMRI (Naval Medical Research Institute) mice brain at the dose of 0.15-0.2 nmol at 2 min", "assay_type": "ADME, organism-based"}, "[24]": {"tested_on": "Mus musculus", "assay": "In vivo biodistribution in NMRI (Naval Medical Research Institute) mice intestine at the dose of 0.15-0.2 nmol at 20 min", "assay_type": "ADME, organism-based"}, "[25]": {"tested_on": "Mus musculus", "assay": "In vivo biodistribution in NMRI (Naval Medical Research Institute) mice spleen at the dose of 0.15-0.2 nmol at 5 min", "assay_type": "ADME, organism-based"}, "[26]": {"tested_on": "Mus musculus", "assay": "In vivo biodistribution in NMRI (Naval Medical Research Institute) mice heart at the dose of 0.15-0.2 nmol at 60 min", "assay_type": "ADME, organism-based", "details": "1 h"}, "[27]": {"tested_on": "Mus musculus", "assay": "In vivo biodistribution in NMRI (Naval Medical Research Institute) mice pancreas at the dose of 0.15-0.2 nmol at 60 min", "assay_type": "ADME, organism-based", "details": "1 h"}, "[28]": {"target": "Adenosine receptor A2a (Rattus norvegicus, UniProt P30543)", "sequence (P30543 whole entry)": "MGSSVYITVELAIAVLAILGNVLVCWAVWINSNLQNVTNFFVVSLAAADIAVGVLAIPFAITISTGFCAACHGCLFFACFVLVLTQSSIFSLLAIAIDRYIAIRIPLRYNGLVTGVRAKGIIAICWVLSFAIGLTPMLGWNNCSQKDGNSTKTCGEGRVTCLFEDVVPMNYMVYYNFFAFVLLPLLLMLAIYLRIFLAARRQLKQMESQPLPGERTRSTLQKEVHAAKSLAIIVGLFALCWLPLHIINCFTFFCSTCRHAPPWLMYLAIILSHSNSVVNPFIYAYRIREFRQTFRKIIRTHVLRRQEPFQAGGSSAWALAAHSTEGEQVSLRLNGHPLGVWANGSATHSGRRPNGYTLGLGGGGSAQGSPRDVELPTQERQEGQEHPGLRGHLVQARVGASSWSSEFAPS", "assay": "In vitro binding affinity at Adenosine A2A receptor of rat cortex"}, "[29]": {"tested_on": "Mus musculus", "assay": "In vivo biodistribution in NMRI (Naval Medical Research Institute) mice kidney at the dose of 0.15-0.2 nmol at 2 min", "assay_type": "ADME, organism-based"}, "[30]": {"tested_on": "Mus musculus", "assay": "In vivo biodistribution in NMRI (Naval Medical Research Institute) mice kidney at the dose of 0.15-0.2 nmol at 20 min", "assay_type": "ADME, organism-based"}, "[31]": {"tested_on": "Mus musculus", "assay": "In vivo biodistribution in NMRI (Naval Medical Research Institute) mice blood at the dose of 0.15-0.2 nmol at 40 min", "assay_type": "ADME, organism-based"}, "[32]": {"tested_on": "Mus musculus", "assay": "In vivo biodistribution in NMRI (Naval Medical Research Institute) mice bone at the dose of 0.15-0.2 nmol at 40 min", "assay_type": "ADME, organism-based, Bone element"}, "[33]": {"tested_on": "Mus musculus", "assay": "In vivo biodistribution in NMRI (Naval Medical Research Institute) mice heart at the dose of 0.15-0.2 nmol at 20 min", "assay_type": "ADME, organism-based"}}}
{"smiles": "CCCn1c(=O)c2nc(C3CCCC3)[nH]c2n(CCC[18F])c1=O", "values": [{"measurement": "ID/g", "setting": "[1]", "value": 0.84, "unit": "%"}, {"measurement": "ID/g", "setting": "[2]", "value": 7.44, "unit": "%"}, {"measurement": "Ki", "setting": "[3]", "value": 0.18, "unit": "nM"}, {"measurement": "ID/g", "setting": "[4]", "value": 9.93, "unit": "%"}, {"measurement": "ID/g", "setting": "[5]", "value": 2.37, "unit": "%"}, {"measurement": "ID/g", "setting": "[6]", "value": 5.35, "unit": "%"}, {"measurement": "ID/g", "setting": "[7]", "value": 6.1, "unit": "%"}, {"measurement": "Kd", "setting": "[8]", "value": 1.26, "unit": "nM"}, {"measurement": "ID/g", "setting": "[9]", "value": 3.83, "unit": "%"}, {"measurement": "ID/g", "setting": "[10]", "value": 2.27, "unit": "%"}, {"measurement": "ID/g", "setting": "[11]", "value": 1.77, "unit": "%"}, {"measurement": "ID/g", "setting": "[12]", "value": 11.2, "unit": "%"}, {"measurement": "ID/g", "setting": "[13]", "value": 9.13, "unit": "%"}, {"measurement": "ID/g", "setting": "[14]", "value": 5.7, "unit": "%"}, {"measurement": "ID/g", "setting": "[15]", "value": 8.64, "unit": "%"}, {"measurement": "ID/g", "setting": "[16]", "value": 3.08, "unit": "%"}, {"measurement": "ID/g", "setting": "[17]", "value": 9.34, "unit": "%"}, {"measurement": "ID/g", "setting": "[18]", "value": 2.43, "unit": "%"}, {"measurement": "ID/g", "setting": "[19]", "value": 1.71, "unit": "%"}, {"measurement": "ID/g", "setting": "[20]", "value": 0.37, "unit": "%"}, {"measurement": "ID/g", "setting": "[21]", "value": 2.44, "unit": "%"}, {"measurement": "ID/g", "setting": "[22]", "value": 9.61, "unit": "%"}, {"measurement": "ID/g", "setting": "[23]", "value": 2.45, "unit": "%"}, {"measurement": "ID/g", "setting": "[24]", "value": 3.51, "unit": "%"}, {"measurement": "ID/g", "setting": "[25]", "value": 1.56, "unit": "%"}, {"measurement": "ID/g", "setting": "[26]", "value": 1.63, "unit": "%"}, {"measurement": "ID/g", "setting": "[27]", "value": 1.03, "unit": "%"}, {"measurement": "Ki", "setting": "[28]", "value": 812, "unit": "nM"}, {"measurement": "ID/g", "setting": "[29]", "value": 4.68, "unit": "%"}, {"measurement": "ID/g", "setting": "[30]", "value": 6.05, "unit": "%"}, {"measurement": "ID/g", "setting": "[31]", "value": 3.92, "unit": "%"}, {"measurement": "ID/g", "setting": "[32]", "value": 2.18, "unit": "%"}, {"measurement": "ID/g", "setting": "[33]", "value": 4.11, "unit": "%"}]}
